Results: patent US20260102383A1, “LPAR1 Inhibitors” (AbbVie Inc., priority 2024, published 2026)

target: T1, human LPAR1 (Homo sapiens, UniProt Q92633); assay: Arrestin assay (Arrestin Reporter EDG2-bla U2OS), inhibition of LPA-stimulated signal; type: cell-based; conditions: TangoEDG2-bla U2OS cells expressing human LPAR1; 0.25 μM LPA; read-out: Arrestin Reporter EDG2-bla U2OS Human Merged IC50
T1 construct: host or cells: TangoEDG2-bla U2OS cells
Procedure: The inhibitory activity of compounds 15, 62, 77, 84 and 169 against LPAR1 was measured using an Arrestin assay in U2OS cells expressing human LPAR1.
FreeStyle media was warmed in a 37° C. water bath. Cryo-preserved vial(s) of TangoEDG2-bla U2OS cells were rapidly thawed in a 37° C. water bath. The thawed cells were added to FreeStyle media and cells were pelleted at 300×g for 5 minutes. The supernatant was aspirated, and cells were resuspended in FreeStyle media. Cell density was adjusted to 0.25×10^6 cells/mL. Cells (1×10^4 in 40 μL) were added to each well of Greiner 384 well black cell plate(s). Cell plate(s) were placed in a humidified 37° C./5% CO2 incubator for 18-20 hours. Dilutions of test compound were prepared at 6× final concentration; 12-point, 3-fold dilutions using HH Buffer (1×HBSS plus 20 mM HEPES). The 6× test compound was then added to the cell plate(s) at 10 μL/well. The final concentration ranged from 10 μM to 0.00006 μM. Cell plate(s) were incubated in a humidified 37° C./5% CO2 incubator for 1 hour. During the incubation, 6×LPA was prepared at 1.5 μM in 0.1% BSA HH Buffer. After the 1-hour incubation of test compound with cells, the LPA was added to the cell plate(s) at 10 μL/well (final LPA concentration of 0.25 μM). Cell plate(s) were returned to a humidified 37° C./5% CO2 incubator for 3 hours. The Development solution was made up per the LiveBLAzerFRET B/G kit protocol. The Development solution was added to the cell plate(s) at 10 μL/well. Cell plates were incubated in the dark at room temperature for 2 hours. Plate(s) were read on an Envision Plate Reader (Perkin Elmer) to read fluorescence; excitation at 409 nm with emission at 460 nm and 530 nm. Raw Data for analysis is the ratio of emission at 460 nm divided by emission 530 nm. The formula used to determine % Inhibition is as follows (1−(Raw Data−Low Average)/(High Average−Low Average))*100. Percent Inhibition was plotted to determine IC50 value with GraphPad Prism 9.5.0 software using Variable slope 4-parameter curve fit analysis.
Additional compounds of the present disclosure were synthesized in a manner similar to the compounds described above and understood by a person of ordinary skill in the art. The inhibitory activity of the compounds of the present disclosure against LPAR1 was measured using the above-referenced Arrestin Assay protocol.

T1 sequence (Q92633 whole entry): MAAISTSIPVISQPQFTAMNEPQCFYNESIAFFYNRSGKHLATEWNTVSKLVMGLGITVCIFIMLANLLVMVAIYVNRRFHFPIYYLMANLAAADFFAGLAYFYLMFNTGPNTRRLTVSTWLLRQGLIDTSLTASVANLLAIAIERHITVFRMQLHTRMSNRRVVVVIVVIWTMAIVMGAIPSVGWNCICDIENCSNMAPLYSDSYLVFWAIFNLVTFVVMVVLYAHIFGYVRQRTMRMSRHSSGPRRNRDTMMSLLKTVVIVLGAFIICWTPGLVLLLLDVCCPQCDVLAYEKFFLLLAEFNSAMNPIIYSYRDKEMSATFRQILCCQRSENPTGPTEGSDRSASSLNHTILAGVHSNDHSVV

Compound | IC50 [nM]
CC(C)c1ccnn1C1(C(=O)Nc2ccc(Cl)cc2OC(F)F)CCN([C@H]2C[C@@]3(C[C@H]3C(=O)O)C2)CC1 (relative stereo) [Compound 106, rel-(1R,3r,5S)-5-[4-1[4-chloro-2-(difluoromethoxy)phenyl]carbamoyl]-4-(5-isopropylpyrazol-1-yl)-1-piperidyl]spiro[2.3]hexane-2-carboxylic acid] | 48.1
CC(C)c1ccnn1C1(C(=O)Nc2ccc(Cl)cc2OC(F)F)CCN(C[C@@H](C(=O)O)C2CCOCC2)CC1 (single isomer, unassigned) [Compound 14, (2.5)-3-[4-[[4-chloro-2-(difluoromethoxy)phenyl]carbamoyl]-4-(5-isopropylpyrazol-1-yl)-1-piperidyl]-2-tetrahydropyran-4-yl-propanoic acid] | 33.9
COc1cccc([C@H](CN2CCC(C(=O)Nc3ccc(Cl)cc3OC(F)F)(n3nccc3C(C)C)CC2)C(=O)O)c1 (single isomer, unassigned) [Compound 32] | 3.11
CC(C)c1ccnn1C1(C(=O)Nc2ccc(Cl)cc2OC(F)F)CCN(C[C@@]2(C(=O)O)CCCCO2)CC1 (single isomer, unassigned) [Compound 38] | 18.8
CC(C)c1ccnn1C1(C(=O)Nc2ccc(Cl)cc2OC(F)F)CCN(C[C@]2(C(=O)O)CCCCO2)CC1 (single isomer, unassigned) [Compound 39, (2.5)-2-[[4-[[4-chloro-2-(difluoromethoxy)phenyl]carbamoyl]-4-(5-isopropylpyrazol-1-yl)-1-piperidyl]methyl]tetrahydropyran-2-carboxylic acid] | 13
CC(C)c1ccnn1C1(C(=O)Nc2ccc(Cl)cc2OC(F)F)CCN([C@H]2C[C@@H](C(=O)O)C2)CC1 (single isomer, unassigned) [Compound 61, (1s,3s)-3-[4-[[4-chloro-2-(difluoromethoxy)phenyl]carbamoyl]-4-(5-isopropylpyrazol-1-yl)-1-piperidyl]cyclobutanecarboxylic acid] | 34.5
CC(C)c1ccnn1C1(C(=O)Nc2ccc(Cl)cc2OC(F)F)CCN(C[C@@](C)(C(=O)O)C2CCOCC2)CC1 (single isomer, unassigned) [Compound 78, (2.5)-3-[4-[[4-chloro-2-(difluoromethoxy)phenyl]carbamoyl]-4-(5-isopropylpyrazol-1-yl)-1-piperidyl]-2-methyl-2-tetrahydropyran-4-yl-propanoic acid] | 48.3
CC(C)c1ccnn1C1(C(=O)Nc2ccc(Cl)cc2OC(F)F)CCN(C[C@]2(C(=O)O)CC[C@@H](O)CC2)CC1 (single isomer, unassigned) [Compound 95, (1s,4s)-1-[[4-[[4-chloro-2-(difluoromethoxy)phenyl]carbamoyl]-4-(5-isopropylpyrazol-1-yl)-1-piperidyl]methyl]-4-hydroxy-cyclohexanecarboxylic acid] | 11.7
COC[C@@H](CN1CCC(C(=O)Nc2ccc(Cl)cc2OC(F)F)(n2nccc2C(C)C)CC1)C(=O)O (single isomer, unassigned) [Compound 119] | 15.5
CC(C)c1c(F)cnn1C1(C(=O)Nc2ccc(Cl)cc2OC(F)F)CCN([C@H]2C[C@@H](C(=O)O)C2)CC1 (single isomer, unassigned) [Compound 123, (1s,3s)-3-[4-[[4-chloro-2-(difluoromethoxy)phenyl]carbamoyl]-4-(4-fluoro-S-isopropyl-pyrazol-1-yl)-1-piperidyl]cyclobutanecarboxylic acid] | 38.9
CC(C)c1ccnn1C1(C(=O)Nc2ccc(Cl)cc2OC(F)F)CCN([C@@H]2CO[C@H](C(=O)O)C2)CC1 (single isomer, unassigned) [Compound 137] | 57.2
CC(C)c1ccnn1C1(C(=O)Nc2ccc(Cl)cc2OC(F)F)CCN([C@H]2CO[C@H](C(=O)O)C2)CC1 (single isomer, unassigned) [Compound 140] | 132
CC(C)c1ccnn1C1(C(=O)Nc2ccc(Cl)cc2OC(F)F)CCN(C[C@@H](C(=O)O)[C@H]2CCOC2)CC1 (single isomer, unassigned) [Compound 149] | 34.5
CC(C)c1ccnn1C1(C(=O)Nc2ccc(Cl)cc2OC(F)F)CCN(C[C@@H](C(=O)O)N2CCOCC2)CC1 (single isomer, unassigned) [Compound 150, (25)-3-[4-[[4-chloro-2-(difluoromethoxy)phenyl]carbamoyl]-4-(5-isopropylpyrazol-1-yl)-1-piperidyl]-2-morpholino-propanoic acid] | 99.5
CC(C)c1ccnn1C1(C(=O)Nc2ccc(Cl)cc2OC(F)F)CCN(C[C@@H](C(=O)O)[C@@H]2CCOC2)CC1 (single isomer, unassigned) [Compound 151] | 75
CC(C)c1ccnn1C1(C(=O)Nc2ccc(Cl)cc2OC(F)F)CCN(C[C@H](C(=O)O)[C@@H]2CCOC2)CC1 (single isomer, unassigned) [Compound 152] | 41.1
CC(C)c1ccnn1C1(C(=O)Nc2ccc(Cl)cc2OC(F)F)CCN(C[C@H](C(=O)O)c2cnn(C)c2)CC1 (single isomer, unassigned) [Compound 154] | 64.1
CC(C)c1ccnn1C1(C(=O)Nc2ccc(Cl)cc2OC(F)F)CCN(C[C@H](CC#N)C(=O)O)CC1 (single isomer, unassigned) [Compound 163] | 38.5
COC[C@H](CN1CCC(C(=O)Nc2ccc(Cl)cc2OC(F)F)(n2ncc(F)c2C(C)C)CC1)C(=O)O (single isomer, unassigned) [Compound 170] | 33.1
CO[C@H]1CC[C@@H]([C@H](CN2CCC(C(=O)Nc3ccc(Cl)cc3OC(F)F)(n3nccc3C(C)C)CC2)C(=O)O)CC1 (single isomer, unassigned) [Compound 184] | 77.3
CO[C@H]1CC[C@H]([C@H](CN2CCC(C(=O)Nc3ccc(Cl)cc3OC(F)F)(n3nccc3C(C)C)CC2)C(=O)O)CC1 (single isomer, unassigned) [Compound 185] | 57.4
CC(C)c1ccnn1C1(C(=O)Nc2ccc(Cl)cc2OC(F)F)CCN([C@H]2CC[C@H](C(=O)O)OC2)CC1 (single isomer, unassigned) [Compound 192] | 65.6
CO[C@]1(C(=O)O)C[C@@H](N2CCC(C(=O)Nc3ccc(Cl)cc3OC(F)F)(n3nccc3C(C)C)CC2)C1 (single isomer, unassigned) [Compound 194, (1r,3r)-3-[4-[[4-chloro-2-(difluoromethoxy)phenyl]carbamoyl]-4-(5-isopropylpyrazol-1-yl)-1-piperidyl]-1-methoxy-cyclobutanecarboxylic acid] | 90.6
CC(C)c1c(Cl)cnn1C1(C(=O)Nc2ccc(Cl)cc2OC(F)F)CCN(C[C@@H](C(=O)O)C2CCOCC2)CC1 (single isomer, unassigned) [Compound 197] | 14
CC(C)c1c(Cl)cnn1C1(C(=O)Nc2ccc(Cl)cc2OC(F)F)CCN(C[C@H](C(=O)O)C2CCOCC2)CC1 (single isomer, unassigned) [Compound 198] | 31.2
CC(C)c1ccnn1C1(C(=O)Nc2ccc(Cl)cc2OC(F)F)CCN(CC2(C(=O)O)CCOC2)CC1 (stereo in doubt) [Compound 23, (3S)-3-[[4-[[4-chloro-2-(difluoromethoxy)phenyl]carbamoyl]-4-(5-isopropylpyrazol-1-yl)-1-piperidyl]methyl]tetrahydrofuran-3-carboxylic acid] | 28.4
CC(C)c1ccnn1C1(C(=O)Nc2ccc(Cl)cc2OC(F)F)CCN(CC(=O)O)CC1 [Compound 1, 2-[4-[[4-chloro-2-(difluoromethoxy)phenyl]carbamoyl]-4-(5-isopropylpyrazol-1-yl)-1-piperidyl]acetic acid] | 54.8
CC(C)c1ccnn1C1(C(=O)Nc2ccc(Cl)cc2OC(F)F)CCN(CCC(C)(C)C(=O)O)CC1 [Compound 2, 4-[4-[[4-chloro-2-(difluoromethoxy)phenyl]carbamoyl]-4-(5-isopropylpyrazol-1-yl)-1-piperidyl]-2,2-dimethyl-butanoic acid] | 50.3
CC(C)c1ccnn1C1(C(=O)Nc2ccc(Cl)cc2OC(F)F)CCN(CC2(C(=O)O)CCOCC2)CC1 [Compound 3, 4-[[4-[[4-chloro-2-(difluoromethoxy)phenyl]carbamoyl]-4-(5-isopropylpyrazol-1-yl)-1-piperidyl]methyl]tetrahydropyran-4-carboxylic acid] | 14.7
